The record followed here is PubChem BioAssay (NCI).

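A five-concentration, 48-hour dose response in 96-well plates underlies each endpoint, interpolated linearly between surrounding concentrations. TGI: total growth inhibition.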

Common to all, as to assay: inhibition of tumour cell growth, NCI panel, 48 h
Test [1] has as its system NCI-H460 lung.
In test [2] the test system is MALME-3M melanoma.
The subject of test [3] is SNB-19 CNS.
Test [4] has as its system SF-539 CNS.
The test system of test [5] is HCC-2998 colon.
Test [6] deals with OVCAR-8 ovarian.
Test [7] concerns SR leukemia.
The subject of test [8] is SF-295 CNS.
The subject of test [9] is A498 renal.

Consider `COc1ccc(CCc2ccc(O)c(C(=O)O)c2)cc1OC`, for which the TGI in test [1], in test [2], in test [3], in test [4], in test [5] and in test [6] was over 100 µM each time. The TGI in [7] and in [8] was over 100 µM in each case.

Consider `CN(C)CCNC(=O)c1ccc(NCCCN(C)CCCNc2ccc(C(=O)NCCN(C)C)c3[nH]c4ccc([N+](=O)[O-])cc4c(=O)c23)c2c(=O)c3cc([N+](=O)[O-])ccc3[nH]c12`, for which the TGI in test [1] was 0.169 µM; in [2], 1.37 µM; in [3] it was 0.649 µM; in test [5], 0.254 µM; in test [6], 1.3 µM; in test [7], 1.91 µM. The TGI in [9] was found to be 0.537 µM.

Turning to `CCOC(=O)c1cc(=O)oc2c1N(C)c1ncccc1N2`, the TGI in test [1], in test [3], in test [5], in test [6], in test [7] and in test [9] was over 100 µM each time. The TGI in [8] is over 100 µM.

As for `O=C(/C=C\Nc1ccccc1O)C(Cl)(Cl)Cl`, the TGI in test [1] was over 100 µM; in test [2], over 100 µM; in test [3] it was over 100 µM; in test [4], over 100 µM; in [5], 52.6 µM; in test [6], over 100 µM. In addition, the values for the TGI in test [9] and in [8] were over 100 µM and 35.2 µM, respectively.

Turning to `COc1ccc(C2SCC(=O)N2NC(=O)C(C)Oc2ccccc2Cl)cc1` (stereo unspecified), the TGI in test [1] is over 100 µM; in test [3] it was over 100 µM; in [4], over 100 µM; in test [5] it was over 100 µM; in test [6] it was over 100 µM; in test [7], 58.1 µM. In addition, the results for the TGI in [9] and in [8] were 92.2 µM and over 100 µM, respectively.

With `COc1cc2cc(C(=O)N3CC(CCl)c4c3cc(N(C)C)c3ccccc43)[nH]c2c(OC)c1OC` (stereo unspecified), the TGI in [2] was 0.0976 µM; in test [3], 10.6 µM; in test [4] it was 0.0132 µM; in test [5], 0.0809 µM; in test [6] it was 0.0206 µM; in test [7], under 0.01 µM. Moreover, the TGI in test [9] was 0.0174 µM; in test [8] it was 0.0381 µM.

`Cc1ccc2cccc3c2c1CC1(C3=O)S(=O)(=O)OCCOS1(=O)=O`: the TGI in test [1], in [2], in [3], in test [4], in test [5] and in test [6] was over 100 µM in each case. In addition, the TGI in test [9] and in [8] was over 100 µM in each case.

For the compound `COc1ccc2c(c1)CCCN1CCc3cc(OC)c(OC)cc3C21` (stereo unspecified), the TGI in [2], in [3], in test [4], in [5], in [6] and in test [7] was over 100 µM in each case. In addition, in [8], the TGI was over 100 µM.

With `COc1ccc(C(C#N)NCCCCCCNC(C#N)c2ccc(OC)cc2)cc1` (stereo unspecified), the TGI in test [2], in test [3], in test [4], in [5], in test [6] and in test [7] was over 100 µM throughout. Further, the TGI in test [9] and in test [8] was over 100 µM throughout.

On to `OCCN=C1c2ccccc2C2C(c3ccccc31)C1c3ccccc3C(=NCCO)c3ccccc3C21` (stereo unspecified), for which the TGI is 58.3 µM in test [1]; 75.7 µM in [2]; 41.4 µM in test [3]; 36.5 µM in test [4]; 40.5 µM in [5]; over 100 µM in [6]. In addition, the TGI in [7] came to 28.9 µM; in [8], 30.6 µM.

Consider `Cc1ccc(Nc2nc(=O)[nH]c(=O)[nH]2)cc1N=[N+]=[N-]`, for which the TGI in test [2], in test [3], in test [4], in test [5], in [6] and in [7] was over 100 µM in each case. The TGI in [9] and in [8] was over 100 µM each time.

Turning to `CC(=O)c1c(-c2ccccc2)c(-c2ccc(OCCN(C)C)cc2)n2ccccc12`, the TGI in test [1] was 26 µM; in test [2], 24.4 µM; in [3], 40.4 µM; in test [4] it was 27.1 µM; in [5] it was 27.7 µM; in [6], 31 µM. Also, the TGI came to 39.3 µM in test [9] and 30.9 µM in test [8].

As to `O=C(NCCCCNCCCNC(=O)c1cc(-c2ccccc2)nc2ccccc12)c1cc(-c2ccccc2)nc2ccccc12`, the TGI in test [1] worked out at 3.39 µM; in test [2], 3.23 µM; in test [4] it was 3.81 µM; in test [5], 3.09 µM; in test [6] it was 3.06 µM; in [7], 6.09 µM. For the same compound, in test [8], the TGI was determined as 3.17 µM.

Consider `S=C(c1c[nH]c2ccccc12)N1CCN(c2ccccc2)CC1`, for which the TGI is over 100 µM in [1]; 87.4 µM in [2]; over 100 µM in test [3]; over 100 µM in test [4]; over 100 µM in test [6]; over 100 µM in test [7]. For the same compound, the TGI in test [9] and in [8] was over 100 µM in each case.

Consider `CSc1nncc2[nH]cnc12`, for which the TGI in test [1], in test [3], in [4], in [6], in test [7] and in test [9] was over 100 µM each time. The TGI in test [8] was over 100 µM.

As for `CCc1n[nH]c(=O)n1NC(=O)c1ccccc1C(=O)O`, the TGI in [3], in test [4], in test [5], in [6], in test [7] and in [8] was over 100 µM throughout.
